Test results reported in ChEMBL document CHEMBL1671662, “In vitro activities of telavancin and six comparator agents against anaerobic bacterial isolates” (2009).

Experiments:
[1] = system: Flavonifractor plautii; test: Antibacterial activity against Clostridium orbiscindens by CLSI M11-A6 agar dilution method in presence of beta-lactamase inhibitor Sulbactam; type: functional
[2] = system: Bifidobacterium longum; test: Antibacterial activity against Bifidobacterium longum by CLSI M11-A6 agar dilution method in presence of beta-lactamase inhibitor Sulbactam; type: functional
[3] = system: Propionibacterium propionicum; test: Antibacterial activity against Propionibacterium propionicus by CLSI M11-A6 agar dilution method in presence of beta-lactamase inhibitor Sulbactam; type: functional; conditions: Arachnia propionica
[4] = system: Blautia luti; test: Antibacterial activity against Ruminococcus luti by CLSI M11-A6 agar dilution method in presence of beta-lactamase inhibitor Sulbactam; type: functional
[5] = system: Paeniclostridium sordellii; test: Antibacterial activity against Clostridium sordellii by CLSI M11-A6 agar dilution method in presence of beta-lactamase inhibitor Sulbactam; type: functional; conditions: Paraclostridium sordellii
[6] = system: Prevotella buccae; test: Antibacterial activity against Prevotella buccae by CLSI M11-A6 agar dilution method in presence of beta-lactamase inhibitor Sulbactam; type: functional; conditions: Segatella buccae
[7] = system: Clostridium sporosphaeroides; test: Antibacterial activity against Clostridium sporosphaeroides by CLSI M11-A6 agar dilution method in presence of beta-lactamase inhibitor Sulbactam; type: functional; conditions: Faecalispora sporosphaeroides
[8] = system: Prevotella nigrescens; test: Antibacterial activity against Prevotella nigrescens by CLSI M11-A6 agar dilution method in presence of beta-lactamase inhibitor Sulbactam; type: functional
[9] = system: Bilophila wadsworthia; test: Antibacterial activity against Bilophila wadsworthia by CLSI M11-A6 agar dilution method in presence of beta-lactamase inhibitor Sulbactam; type: functional
[10] = system: Anaerococcus tetradius; test: Antibacterial activity against Anaerococcus tetradius by CLSI M11-A6 agar dilution method in presence of beta-lactamase inhibitor Sulbactam; type: functional
[11] = system: Clostridium scindens; test: Antibacterial activity against Clostridium scindens by CLSI M11-A6 agar dilution method in presence of beta-lactamase inhibitor Sulbactam; type: functional
[12] = system: Clostridium perfringens; test: Antibacterial activity against Clostridium perfringens by CLSI M11-A6 agar dilution method in presence of beta-lactamase inhibitor Sulbactam; type: functional
[13] = system: Parvimonas micra; test: Antibacterial activity against Peptostreptococcus micros by CLSI M11-A6 agar dilution method in presence of beta-lactamase inhibitor Sulbactam; type: functional
[14] = system: [Clostridium] innocuum; test: Antibacterial activity against Clostridium innocuum by CLSI M11-A6 agar dilution method in presence of beta-lactamase inhibitor Sulbactam; type: functional
[15] = system: Clostridium spiroforme; test: Antibacterial activity against Clostridium spiroforme by CLSI M11-A6 agar dilution method in presence of beta-lactamase inhibitor Sulbactam; type: functional; conditions: Thomasclavelia spiroformis
[16] = system: Clostridium butyricum; test: Antibacterial activity against Clostridium butyricum by CLSI M11-A6 agar dilution method in presence of beta-lactamase inhibitor Sulbactam; type: functional
[17] = system: Prevotella intermedia; test: Antibacterial activity against Prevotella intermedia by CLSI M11-A6 agar dilution method in presence of beta-lactamase inhibitor Sulbactam; type: functional
[18] = system: Clostridium bartlettii; test: Antibacterial activity against Clostridium bartlettii by CLSI M11-A6 agar dilution method in presence of beta-lactamase inhibitor Sulbactam; type: functional; conditions: Intestinibacter bartlettii
[19] = system: Parabacteroides distasonis; test: Antibacterial activity against Parabacteroides distasonis by CLSI M11-A6 agar dilution method in presence of beta-lactamase inhibitor Sulbactam; type: functional
[20] = system: Prevotella bivia; test: Antibacterial activity against Prevotella bivia by CLSI M11-A6 agar dilution method in presence of beta-lactamase inhibitor Sulbactam; type: functional
[21] = system: Odoribacter splanchnicus; test: Antibacterial activity against Bacteroides splanchnicus by CLSI M11-A6 agar dilution method in presence of beta-lactamase inhibitor Sulbactam; type: functional
[22] = system: Clostridium disporicum; test: Antibacterial activity against Clostridium disporicum by CLSI M11-A6 agar dilution method in presence of beta-lactamase inhibitor Sulbactam; type: functional
[23] = system: Parabacteroides merdae; test: Antibacterial activity against Parabacteroides merdae by CLSI M11-A6 agar dilution method in presence of beta-lactamase inhibitor Sulbactam; type: functional
[24] = system: Ruminococcus flavefaciens; test: Antibacterial activity against Ruminococcus flavefaciens by CLSI M11-A6 agar dilution method in presence of beta-lactamase inhibitor Sulbactam; type: functional
[25] = system: Prevotella denticola; test: Antibacterial activity against Prevotella denticola by CLSI M11-A6 agar dilution method in presence of beta-lactamase inhibitor Sulbactam; type: functional
[26] = system: Blautia producta; test: Antibacterial activity against Ruminococcus productus by CLSI M11-A6 agar dilution method in presence of beta-lactamase inhibitor Sulbactam; type: functional
[27] = system: Prevotella disiens; test: Antibacterial activity against Prevotella disiens by CLSI M11-A6 agar dilution method in presence of beta-lactamase inhibitor Sulbactam; type: functional
[28] = Antibacterial activity against Bifidobacterium infantis by CLSI M11-A6 agar dilution method in presence of beta-lactamase inhibitor Sulbactam; type: functional, Bifidobacterium longum subsp. infantis; conditions: Bifidobacterium longum
[29] = system: Ruminococcus albus; test: Antibacterial activity against Ruminococcus albus by CLSI M11-A6 agar dilution method in presence of beta-lactamase inhibitor Sulbactam; type: functional; conditions: Hominimerdicola alba
[30] = system: Bacteroides fragilis; test: Antibacterial activity against Bacteroides fragilis by CLSI M11-A6 agar dilution method in presence of beta-lactamase inhibitor Sulbactam; type: functional
[31] = system: Streptococcus intermedius; test: Antibacterial activity against Streptococcus intermedius by CLSI M11-A6 agar dilution method in presence of beta-lactamase inhibitor Sulbactam; type: functional
[32] = system: Peptostreptococcus anaerobius; test: Antibacterial activity against Peptostreptococcus anaerobius by CLSI M11-A6 agar dilution method in presence of beta-lactamase inhibitor Sulbactam; type: functional
[33] = system: Eggerthella lenta; test: Antibacterial activity against Eggerthella lenta by CLSI M11-A6 agar dilution method in presence of beta-lactamase inhibitor Sulbactam; type: functional
[34] = system: Clostridium sporogenes; test: Antibacterial activity against Clostridium sporogenes by CLSI M11-A6 agar dilution method in presence of beta-lactamase inhibitor Sulbactam; type: functional
[35] = system: Holdemania filiformis; test: Antibacterial activity against Holdemania filiformis by CLSI M11-A6 agar dilution method in presence of beta-lactamase inhibitor Sulbactam; type: functional

Q: Which MIC50 [1] does the source give for `CC1(C)S[C@@H]2[C@H](NC(=O)[C@H](N)c3ccccc3)C(=O)N2[C@H]1C(=O)O` [AMPICILLIN] here?
A: 0.25 µg/mL

Q: What about the MIC90 [1] of the same compound?
A: 1 µg/mL

Q: And the MIC50 [2]?
A: 0.25 µg/mL

Q: And the MIC90 [2]?
A: 1 µg/mL

Q: And the MIC50 [3]?
A: 0.25 µg/mL

Q: And the MIC90 [3]?
A: 1 µg/mL

Q: And the MIC50 [4]?
A: ≤ 0.12 µg/mL

Q: What about the MIC90 [4] of the same compound?
A: 1 µg/mL

Q: What about the MIC50 [5] of the same compound?
A: 0.25 µg/mL

Q: And the MIC90 [5]?
A: 1 µg/mL

Q: And the MIC50 [6]?
A: ≤ 0.12 µg/mL

Q: What about the MIC90 [6] of the same compound?
A: 2 µg/mL

Q: What about the MIC50 [7] of the same compound?
A: 0.25 µg/mL

Q: And the MIC90 [7]?
A: 1 µg/mL

Q: And the MIC50 [8]?
A: ≤ 0.12 µg/mL

Q: What about the MIC90 [8] of the same compound?
A: 2 µg/mL

Q: And the MIC50 [9]?
A: 2 µg/mL

Q: And the MIC90 [9]?
A: 4 µg/mL

Q: And the MIC50 [10]?
A: 0.25 µg/mL

Q: What about the MIC90 [10] of the same compound?
A: 0.5 µg/mL

Q: And the MIC50 [11]?
A: 0.25 µg/mL

Q: And the MIC90 [11]?
A: 1 µg/mL

Q: What about the MIC [12] of the same compound?
A: ≤ 0.12 µg/mL

Q: And the MIC50 [12]?
A: ≤ 0.12 µg/mL

Q: What about the MIC90 [12] of the same compound?
A: ≤ 0.12 µg/mL

Q: And the MIC50 [13]?
A: 0.25 µg/mL

Q: What about the MIC90 [13] of the same compound?
A: 0.5 µg/mL

Q: What about the MIC50 [14] of the same compound?
A: 0.5 µg/mL

Q: What about the MIC90 [14] of the same compound?
A: 0.5 µg/mL

Q: What about the MIC50 [15] of the same compound?
A: 0.25 µg/mL

Q: And the MIC90 [15]?
A: 1 µg/mL

Q: And the MIC50 [16]?
A: 0.25 µg/mL

Q: And the MIC90 [16]?
A: 1 µg/mL

Q: What about the MIC50 [17] of the same compound?
A: ≤ 0.12 µg/mL

Q: And the MIC90 [17]?
A: 2 µg/mL

Q: And the MIC50 [18]?
A: 0.25 µg/mL

Q: And the MIC90 [18]?
A: 1 µg/mL

Q: And the MIC50 [19]?
A: 8 µg/mL

Q: What about the MIC90 [19] of the same compound?
A: 32 µg/mL

Q: What about the MIC50 [20] of the same compound?
A: ≤ 0.12 µg/mL

Q: And the MIC90 [20]?
A: 2 µg/mL

Q: And the MIC [21]?
A: 1 µg/mL

Q: What about the MIC50 [21] of the same compound?
A: 1 µg/mL

Q: What about the MIC90 [21] of the same compound?
A: 4 µg/mL

Q: What about the MIC50 [22] of the same compound?
A: 0.25 µg/mL

Q: And the MIC90 [22]?
A: 1 µg/mL

Q: What about the MIC50 [23] of the same compound?
A: 8 µg/mL

Q: What about the MIC90 [23] of the same compound?
A: 32 µg/mL

Q: And the MIC50 [24]?
A: ≤ 0.12 µg/mL

Q: What about the MIC90 [24] of the same compound?
A: 1 µg/mL

Q: What about the MIC50 [25] of the same compound?
A: ≤ 0.12 µg/mL

Q: And the MIC90 [25]?
A: 2 µg/mL

Q: What about the MIC50 [26] of the same compound?
A: ≤ 0.12 µg/mL

Q: And the MIC90 [26]?
A: 1 µg/mL

Q: What about the MIC50 [27] of the same compound?
A: ≤ 0.12 µg/mL

Q: What about the MIC90 [27] of the same compound?
A: 2 µg/mL

Q: What about the MIC50 [28] of the same compound?
A: 0.25 µg/mL

Q: And the MIC90 [28]?
A: 1 µg/mL

Q: And the MIC50 [29]?
A: ≤ 0.12 µg/mL

Q: And the MIC90 [29]?
A: 1 µg/mL

Q: What about the MIC50 [30] of the same compound?
A: 1 µg/mL

Q: And the MIC90 [30]?
A: 8 µg/mL

Q: And the MIC50 [31]?
A: 0.5 µg/mL

Q: What about the MIC90 [31] of the same compound?
A: 0.5 µg/mL

Q: And the MIC50 [32]?
A: 0.25 µg/mL

Q: What about the MIC90 [32] of the same compound?
A: 0.5 µg/mL

Q: And the MIC50 [33]?
A: 0.25 µg/mL

Q: And the MIC90 [33]?
A: 1 µg/mL

Q: What about the MIC50 [34] of the same compound?
A: 0.25 µg/mL

Q: What about the MIC90 [34] of the same compound?
A: 1 µg/mL

Q: And the MIC50 [35]?
A: 0.25 µg/mL

Q: What about the MIC90 [35] of the same compound?
A: 1 µg/mL
